Laboratory results taken from ChEMBL document CHEMBL4828717, “Synthetic cajaninstilbene acid derivatives eradicate methicillin-resistant Staphylococcus aureus persisters and biofilms” (Eur J Med Chem, 2021).

How the values were obtained:
[1] = tested on: Staphylococcus aureus; test: Antibacterial activity against methicillin resistant Staphylococcus aureus ATCC48073 assessed as reduction in microbial growth after 16 to 18 hrs by microbroth dilution method; type: functional; conditions: time 16-18 hrs
[2] = tested on: Staphylococcus aureus; test: Antibacterial activity against Staphylococcus aureus ATCC 25923 assessed as reduction in microbial growth after 16 to 18 hrs by microbroth dilution method; type: functional; conditions: time 16-18 hrs
[3] = tested on: Staphylococcus aureus; test: Antibacterial activity against methicillin resistant Staphylococcus aureus ATCC49025 assessed as reduction in microbial growth after 16 to 18 hrs by microbroth dilution method; type: functional; conditions: time 16-18 hrs
[4] = tested on: Pseudomonas aeruginosa; test: Antibacterial activity against Pseudomonas aeruginosa ATCC27853 assessed as reduction in microbial growth after 16 to 18 hrs by microbroth dilution method; type: functional; conditions: time 16-18 hrs
[5] = tested on: Staphylococcus aureus; test: Antibacterial activity against methicillin resistant Staphylococcus aureus ATCC48706 assessed as reduction in microbial growth after 16 to 18 hrs by microbroth dilution method; type: functional; conditions: time 16-18 hrs
[6] = tested on: L02; test: Cytotoxicity against human L02 cells assessed as cell viability at 10 ug/ml measured after 24 hrs by MTT assay; type: cell-based; conditions: l02, 24 h, dose 10 µg/ml
[7] = tested on: Escherichia coli; test: Antibacterial activity against Escherichia coli ATCC25922 assessed as reduction in microbial growth after 16 to 18 hrs by microbroth dilution method; type: functional; conditions: ATCC 25922, time 16-18 hrs
[8] = tested on: Staphylococcus aureus; test: Antibacterial activity against methicillin resistant Staphylococcus aureus ATCC515992 assessed as reduction in microbial growth after 16 to 18 hrs by microbroth dilution method; type: functional; conditions: time 16-18 hrs
[9] = tested on: RAW264.7; test: Cytotoxicity against mouse RAW264.7 cells assessed as cell viability at 10 ug/ml measured after 24 hrs by MTT assay; type: cell-based; conditions: raw264.7, 24 h, dose 10 µg/ml
[10] = tested on: Staphylococcus aureus; test: Antibacterial activity against methicillin resistant Staphylococcus aureus ATCC49800 assessed as reduction in microbial growth after 16 to 18 hrs by microbroth dilution method; type: functional; conditions: time 16-18 hrs
[11] = tested on: Staphylococcus aureus; test: Antibacterial activity against methicillin resistant Staphylococcus aureus ATCC513045 assessed as reduction in microbial growth after 16 to 18 hrs by microbroth dilution method; type: functional; conditions: time 16-18 hrs
[12] = tested on: Staphylococcus aureus; test: Antibacterial activity against methicillin resistant Staphylococcus aureus ATCC 43300 assessed as reduction in microbial growth after 16 to 18 hrs by microbroth dilution method; type: functional; conditions: time 16-18 hrs
[13] = tested on: Enterococcus faecalis; test: Antibacterial activity against Enterococcus faecalis ATCC29212 assessed as reduction in microbial growth after 16 to 18 hrs by microbroth dilution method; type: functional; conditions: ATCC 29212, time 16-18 hrs
[14] = tested on: Staphylococcus aureus; test: Antibacterial activity against methicillin resistant Staphylococcus aureus ATCC48966 assessed as reduction in microbial growth after 16 to 18 hrs by microbroth dilution method; type: functional; conditions: time 16-18 hrs
[15] = tested on: Staphylococcus aureus; test: Antibacterial activity against methicillin resistant Staphylococcus aureus ATCC 52056 assessed as reduction in microbial growth after 16 to 18 hrs by microbroth dilution method; type: functional; conditions: time 16-18 hrs
[16] = tested on: Staphylococcus aureus; test: Antibacterial activity against methicillin resistant Staphylococcus aureus ATCC 62202 assessed as reduction in microbial growth after 16 to 18 hrs by microbroth dilution method; type: functional; conditions: time 16-18 hrs
[17] = tested on: Staphylococcus aureus; test: Antibacterial activity against methicillin resistant Staphylococcus aureus ATCC49008 assessed as reduction in microbial growth after 16 to 18 hrs by microbroth dilution method; type: functional; conditions: time 16-18 hrs

Molecule | MIC [1] | MIC [2] | MIC [3] | MIC [4] | MIC [5] | Activity [6] | MIC [7] | MIC [8] | Activity [9] | MIC [10] | MIC [11] | MIC [12] | MIC [13] | MIC [14] | MIC [15] | MIC [16] | MIC [17]
CC(C)=CCc1c(OCC2CC2)cc(/C=C/c2ccc(F)cc2)c(C(=O)O)c1O | 2 mg/L | 2 mg/L | 2 mg/L | > 32 mg/L | 2 mg/L | Toxic | > 32 mg/L | 2 mg/L | Toxic | 2 mg/L | 2 mg/L | 2 mg/L | > 32 mg/L | 2 mg/L | 2 mg/L | 4 mg/L | 2 mg/L
CC(C)=CCc1c(OCCCCF)cc(/C=C/c2ccc(F)cc2)c(C(=O)O)c1O | 4 mg/L | 4 mg/L | 4 mg/L | > 32 mg/L | 4 mg/L | Toxic | > 32 mg/L | 4 mg/L | Toxic | 4 mg/L | 4 mg/L | 4 mg/L | > 32 mg/L | 4 mg/L | 4 mg/L | 4 mg/L | 4 mg/L
CCn1cc(C(=O)O)c(=O)c2cc(F)c(N3CCNCC3)cc21 [NORFLOXACIN] | 1 mg/L | 2 mg/L | 1 mg/L | > 32 mg/L | 2 mg/L | – | > 32 mg/L | 32 mg/L | – | 1 mg/L | 32 mg/L | 32 mg/L | > 32 mg/L | 1 mg/L | 2 mg/L | 2 mg/L | 1 mg/L
CC(C)=CCc1c(OCC2CC2)cc(/C=C/c2ccc(C(F)(F)F)cc2)c(C(=O)O)c1O | 2 mg/L | 1 mg/L | 2 mg/L | > 32 mg/L | 2 mg/L | Toxic | > 32 mg/L | 2 mg/L | Toxic | 2 mg/L | 2 mg/L | 2 mg/L | > 32 mg/L | 2 mg/L | 1 mg/L | 2 mg/L | 2 mg/L
CC(C)=CCc1c(OCC(F)F)cc(/C=C/c2ccc(F)cc2)c(C(=O)O)c1O | 4 mg/L | 4 mg/L | 4 mg/L | > 32 mg/L | 4 mg/L | Toxic | > 32 mg/L | 4 mg/L | Toxic | 4 mg/L | 4 mg/L | 4 mg/L | > 32 mg/L | 4 mg/L | 2 mg/L | 4 mg/L | 4 mg/L
CC(C)=CCc1c(OCCC(F)(F)F)cc(/C=C/c2ccc(C(F)(F)F)cc2)c(C(=O)O)c1O | 4 mg/L | 2 mg/L | 4 mg/L | > 32 mg/L | 4 mg/L | Toxic | > 32 mg/L | 2 mg/L | Toxic | 4 mg/L | 2 mg/L | 2 mg/L | > 32 mg/L | 4 mg/L | 2 mg/L | 2 mg/L | 4 mg/L
GENTAMICIN | – | – | – | – | – | – | – | – | – | – | – | 16 mg/L | – | – | – | – | –
CC(C)=CCc1c(OCC(F)F)cc(/C=C/c2ccc(C(F)(F)F)cc2)c(C(=O)O)c1O | 2 mg/L | 2 mg/L | 2 mg/L | > 32 mg/L | 2 mg/L | Toxic | > 32 mg/L | 2 mg/L | Toxic | 2 mg/L | 2 mg/L | 2 mg/L | > 32 mg/L | 2 mg/L | 2 mg/L | 2 mg/L | 2 mg/L
